The text below walks through data of patent US20190314345A1, “CALCINEURIN INHIBITOR AND NON-STEROIDAL ANTI-INFLAMMATORY DRUG TO REDUCE RISK OF POST-IMAGING PANCREATITIS” (UNIVERSITY OF PITTSBURGH - OF THE COMMONWEALTH SYSTEM OF …, priority 2016, published 2019).

The subject of test [1] is PEP model in mice. The test is described as follows: Intra-ductal RC infusion PEP model in mice: histological severity, serum amylase. The test is classed as in vivo, mouse. The text has this:
The procedure for retrograde infusion into the CBD and pancreatic duct has been described before^14. Briefly, Swiss Webster mice were anesthetized with isoflurane. A midline incision was made to reveal the abdominal cavity. The duodenum was flipped to reveal its distal side and held in place by ligatures. […] needle was inserted through the anti-mesenteric aspect of the duodenum to cannulate the CBD. A small bull dog clamp was applied to the distal CBD (near the duodenum) to prevent back flow of the infusate into the duodenal lumen and to hold the cannula in place. A larger bull dog clamp was applied to the proximal CBD (near the liver) to prevent infusion into the liver and thus to direct flow to the pancreatic duct. Total volumes of 50-100 μl of iohexol, iopamidol, or normal saline (NS) were infused at 10-20 μl per min for 5 min using a P33 perfusion pump (Harvard Apparatus, Holliston, Mass.). Upon completion of the infusion, the bull dog clamps were released. The exterior abdominal wound was closed using 7 mm wound clips, and a single injection of buprenorphine (0.075 mg/kg) was given immediately after the surgery. Mice recovered on a heating pad for 30 min after the procedure. They were given free access to food and water after the surgery. The pancreas, duodenum, and spleen were fixed at room temperature for 24 hr in 4% paraformaldehyde. Paraffin-embedded sections were stained with hematoxylin an eosin (HE) and graded using a 20× objective over 10 separate fields in a blinded fashion. Pancreas tissue was graded for edema, inflammatory infiltrate, and necrosis as described by Wildi et al.^67. Whole blood samples were centrifuged at 1500×g for 5 min at 4° C. Serum amylase was measured using a Phadebas kit (Amersham Pharmacia, Rochester N.Y.) as previously described^68.

The test system of test [2] is PEP model in mice. The test is described as follows: PEP model with intraductal delivery of Cn inhibitors with the radiocontrast. In kind it is in vivo, mouse. The note with it: CsA 10 μM. The protocol: PEP was induced as previously described^73. Briefly, 100 μl iohexol (Omnipaque, GE Healthcare, Princeton, N.J.) was infused retrograde into the biliopancreatic duct at a rate of 20 μl/min for 5 min. Mice from the ductal manipulation (DM) group received retrograde infusion of 50 μl normal saline into pancreatic ductal at a lower rate of 10 μl/min for 5 min. Mice were euthanized 24 hr after PEP induction by CO2 inhalation and cervical dislocation. Mice from the sham group received laparotomy only. Blood was collected by retro-orbital bleed 6 h after PEP induction. […] Serum amylase was measured using a Phadebas Kit (Amersham Pharmacia, Rochester, N.Y.) according to the manufacturer's instruction. The pancreas, duodenum, and spleen were placed en bloc in a cassette in order to maintain anatomical orientation (FIG. 18A). The tissues were fixed in 4% paraformaldehyde at room temperature for 24 hr. Paraffin-embedded sections were stained with hematoxylin and eosin (HE). Ten systematically selected fields at 200× magnification were graded in a blinded fashion from the head of the pancreas, which was identified by its juxtaposition to the duodenum. […] Labelled areas within the parenchyma were marked as edema, and their surface area was calculated as a percentage of the total parenchymal area.

The subject of test [3] is NF-κB. Nature of the test: NF-κB-luciferase activity assay in AR42J cells. The following applies: FK506 24 μM, CsA 16 μM; P<0.05. The test is classed as cell-based. The protocol:
AR42J cells were differentiated towards an acinar phenotype by administering dexamethasone (100 nM) for 48-72 hr^17. AR42J cells were infected with Ad-NF-κB luciferase 16 h prior to stimulation using a previously described method^12. Following a wash with DMEM/F12 medium, acinar cells were evenly distributed in a 48-well plate and incubated for 30 min at 37° C. They were incubated with RC at varying concentrations and times. NF-κB-luciferase was measured using a commercially available luciferase assay (Promega, Madison, Wis.). Briefly, cells were spun at 1,000 rpm for 5 min, washed with PBS, and lysed using reporter lysis 5× buffer (Promega, catalog no. E397A). Samples were vortexed and spun at 12,000×g for 2 min. The supernatant was plated, and luminescence was measured using a Synergy H1 plate reader (BioTek, Winooski, Vt.) and normalized to […].

In test [4] the test system is calcineurin. Nature of the test: NFAT-luciferase activity assay in AR42J cells. The test is classed as cell-based. The note with it: pretreatment; FK506 24 μM, CsA 16 μM, U73122 5 μM, 2-APB 100 μM, BAPTA 64 μM. The protocol: Acinar cells were infected with Ad-NFAT-luciferase following a previously described procedure^10, 15, 16. The construct includes a luciferase gene placed downstream of an IL-4 promoter which contains nine tandem NFAT binding sites^10. Acinar cells were incubated with the NFAT-driven luciferase adenovirus for 1.5 hr prior to stimulation. All of the stated inhibitors were added for 30 min prior to stimulation with RC. NFAT-luciferase was measured using the luciferase assay system. Briefly, cells were spun at 1,000 rpm for 5 min, washed with PBS, and lysed using reporter lysis 5× buffer (Promega #E397A, Madison, Wis.). Samples were vortexed and spun at 12,000 g for 2 min. Supernatant was plated, and luminescence was measured using a Synergy H1 plate reader (BioTek, Winooski, Vt.) and normalized to total protein.

Test [5] has as its system pancreatic acinar cells. Nature of the test: ATP level measurements in acinar cells. The test is classed as cell-based, mouse. The following applies: RC 12% for 3.5 hr. The protocol: Following isolation, pancreatic acinar cells were cultured in DMEM/F12 Medium (0.5 ml/well of a 48-well plate) at 37° C. water bath and treated with RC±FK506. Cells were collected at indicated time points and lysed in 100 lysis buffer (100 mM Tris pH 7.75, 4 mM EDTA). ATP levels were measured from 20 μl aliquots of acinar cell lysates using the ENLITEN luciferase/luciferin reagent (Promega catalog no. FF2021).

Regarding `C=CC[C@@H]1/C=C(\C)C[C@H](C)C[C@H](OC)[C@H]2O[C@@](O)(C(=O)C(=O)N3CCCC[C@H]3C(=O)O[C@H](/C(C)=C/[C@@H]3CC[C@@H](O)[C@H](OC)C3)[C@H](C)[C@@H](O)CC1=O)[C@H](C)C[C@@H]2OC` [FK506, tacrolimus], the “effect when given after PEP induction” value in test [1] (FK506 1 mg/kg after the infusion of RC) is “reduces pancreatic inflammation”. Moreover, in test [1] (FK506 1 mg/kg intraperitoneal 1 hr prior and 2.5, 5.5, 12 hr after RC infusion), the serum amylase result was “reduced down to the level of the NS sham condition”. The “histological severity of the pancreas following pancreatitis” value in test [1] (FK506 1 mg/kg intraperitoneal 1 hr prior and 2.5, 5.5, 12 hr after RC infusion, 24 hr) is recorded as “prevented”. Also, the “effect of FK506 compared with therapeutic indomethacin on RC-induced pancreatitis” value in test [1] (FK506 1 mg/kg, indomethacin 7 mg/kg IP after RC infusion) was “as robust”. The “serum amylase elevations seen with PEP” value in test [2] (6 hr after infusion, intraductal FK506 1 μM) was “reduced”. Also, the “reduction of severity of the moderate model of PEP” value in test [2] (intraductal with radiocontrast, FK506 1 μM, down to sham levels) came out at 61%. In test [3], the “reduction of RC-induced NF-κB” value amounted to 73%. For the same compound, the “effect on RC (6%)-induced NFAT-luciferase activity” value in test [4] was “prevented”. Further, the “effect on RC-induced ATP depletion” value in test [5] is recorded as “failed to prevent ATP depletion”.
